Consider two compounds from patent US20170015640A1, “USE OF ARYLALKANOLAMINES AS SIGMA-1 RECEPTOR ANTAGONISTS” (Università degli studi di Pavia, priority 2014, published 2017).

The nature of data set [1]: In vitro metabolic stability in rat blood. In kind it is in vitro ADME. As to conditions: 37° C., FIG. 7(B). The protocol:
(§1) The metabolic stability studies were performed using biological matrices (plasma, blood and S9 fraction of liver) obtained from various animal species.
(§2) The biological matrices and the analysis method were arranged according to the process described by Rossi D. et al. in “Identification of RC-33 as a potent and selective al receptor agonist potentiating NGF-induced neurite outgrowth in PC12 cells. Part 2: g -scale synthesis, physicochemical characterization and in vitro metabolic stability” (Bioorg. Med. Chem. 2013, 21, 2577-2586).
(§3) For each biological matrix, suitable solutions were prepared to perform the test, as described below.
(§4) 10 μL of a stock solution of compound 1 in dimethyl sulfoxide (DMSO) were incubated with each matrix (total reaction volume 1 mL) in a mixer thermostatically maintained at 37° C. for […]. 50 μL aliquots were taken from each reaction mixture and sampled in duplicate at 5, 10, 15, 30, 60, 120 and 240 minutes to determine the reaction kinetics. […] The supernatant was analysed by means of an Acquity Waters ultra-fast liquid chromatography system, interfaced with a photodiode array detector (UPLC/UV/PAD) to obtain the concentration of the test compound at each of the said times. […]
(§5) The results, obtained from three independent experiments and expressed as the mean value ±standard deviation (SD), are given in FIGS. 8 and 9.

Data set [2] in a line: In vitro metabolic stability in rat plasma. As to conditions: 37° C., FIG. 7(A). The class given is in vitro ADME. The protocol:
as §1, §2, §3, §4, §5

The nature of data set [3]: In vitro metabolic stability in dog plasma. As to conditions: 37° C., FIG. 7(A). The class given is in vitro ADME. The protocol: as §1, §2, §3, §4, §5
Data set [4] has as its target T1, σ-1 receptors (Rattus norvegicus, UniProt Q9R0C9).
T1 construct: performed on rat pheochromocytoma cells (PC12 cells); endogenous in cells; host or cells: PC12 rat pheochromocytoma cells
As to the kind of experiment: Growth of NGF-induced neurite outgrowths in PC12 cells (agonist/antagonist profile). As to conditions: FIG. 6. The class given is cell-based. The protocol:
Evaluation of the growth of neurite outgrowths induced by neuronal growth factor (NGF).
Evaluation of the growth of NGF-induced neurite outgrowths was performed on rat pheochromocytoma cells (PC12 cells), conventionally used as a model of neuronal study.
This method constitutes a reliable model for evaluating the agonist/antagonist profile of low molecular weight compounds on the o receptors. In particular, it has been reported that σ-1 agonists potentiate the growth of NGF-induced neurite outgrowths in PC12 cells. In contrast, σ-1 antagonists oppose the action of the agonists, leading to a reduction in NGF-induced growth (Rossi D. et al., “identification of a potent and selective σ1 receptor agonist potentiating NGF-induced neurite outgrowth in PC12 cells”, Bioorg. Med. Chem. 2011, 19, 6210-6224).
The cell culturing PC12 cells, the method for quantifying the growth of neurite outgrowths and the cytotoxicity test were performed as described by Rossi D. et al. in Bioorg. Med. Chem. 2011 cited above.
Statistical analysis of the data obtained was performed using the two-way analysis of variants (ANOVA) method and the Tukey post-hoc test. Values of p<0.05 were considered as being statistically significant.
The results, expressed as the mean value ±standard error of mean (SEM), represent the percentage of cells showing neurite growth. […]

Data set [5] concerns the target σ-1 receptor (Cavia porcellus, UniProt Q60492). Kind of data set: biochemical.
From the text: The IC50 values obtained from three independent experiments were transformed into the respective affinity constants (Ki), using the Cheng-Prusoff equation.
The nature of data set [6]: In vitro metabolic stability in S9 fraction of rat liver. In kind it is in vitro ADME. The protocol: as §1, §2, §3, §4, §5
Data set [7] can be described thus: In vitro metabolic stability in S9 fraction of human liver. The class given is in vitro ADME. The protocol: as §1, §2, §3, §4, §5
Data set [8] can be described thus: In vitro metabolic stability in human plasma. As to conditions: 37° C., FIG. 7(A). The class given is in vitro ADME. The protocol: as §1, §2, §3, §4, §5
The test system of data set [9] is male ICR mice. As to the kind of experiment: Formalin test (animal model of inflammatory pain). The conditions noted are these: intraperitoneal, even at a dose of 1 mg/kg, 30 min before 2% formalin, FIG. 9. In kind it is in vivo, mouse. The protocol:
The formalin test is an animal model of inflammatory pain widely used and known in the literature.
32 male ICR mice weighing 25 grams were divided into 4 groups of 8 mice each.
The vehicle alone, which consisted of a mixture of dimethyl sulfoxide (DMSO), castor oil Cremophor® EL (BASF) and distilled water, in a 10/10/80 ratio, was administered to the control group (CTR).
Compound 1 was dissolved in the same vehicle and administered at the following doses: • group 1, 1 mg/kg; • group 2, 10 mg/kg; and • group 3, 20 mg/kg.
All the administrations took place by intraperitoneal injection. Thirty minutes after the administration, all the mice were subjected to an injection with 20 uL of a 2% formalin solution subcutaneously, into a paw.
The injection of formalin induces a two-phase nociceptive response, in other words, within the first 5-10 minutes of the administration of formalin, the first nociceptive phase is manifested, followed by a phase of quiescence and by the second nociceptive phase which is manifested 20-30 minutes after the administration of formalin.
The nociceptive response was recorded by evaluating the time that each mouse spent licking or biting its paw which received the injection. […]

The nature of data set [10]: In vitro metabolic stability, overall conclusion over biological matrices. In kind it is in vitro ADME, various animal species. The protocol: as §1, §2, §3, §4, §5
The nature of data set [11]: In vitro metabolic stability in mouse blood. In kind it is in vitro ADME. As to conditions: 37° C., FIG. 7(B). The protocol: as §1, §2, §3, §4, §5

T1 sequence (Q9R0C9 whole entry): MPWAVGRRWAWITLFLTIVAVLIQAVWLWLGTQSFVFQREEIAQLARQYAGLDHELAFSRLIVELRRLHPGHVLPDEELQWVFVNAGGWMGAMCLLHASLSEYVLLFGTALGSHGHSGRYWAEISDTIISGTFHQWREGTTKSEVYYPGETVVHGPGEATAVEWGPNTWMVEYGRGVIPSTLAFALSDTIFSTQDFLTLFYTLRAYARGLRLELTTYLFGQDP
Sequence of σ-1 receptor (Q60492 whole entry): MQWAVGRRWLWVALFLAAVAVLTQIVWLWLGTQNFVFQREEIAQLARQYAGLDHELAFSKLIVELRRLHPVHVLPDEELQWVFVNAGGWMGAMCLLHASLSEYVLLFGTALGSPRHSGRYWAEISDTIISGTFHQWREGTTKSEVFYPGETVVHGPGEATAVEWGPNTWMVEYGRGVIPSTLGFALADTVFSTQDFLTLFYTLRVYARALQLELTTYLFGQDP

`OCC(CCN1CCCCC1)c1ccc(-c2ccccc2)cc1` (centres unmarked) [Compound 1, 4-(N-piperidinyl)-2-(4-diphenyl)butanol]: in [1], the “metabolization in rat blood” value is “insignificant”. In addition, the “metabolization in rat plasma” value in data set [2] was “insignificant”. Further, the “metabolization in dog plasma” value in data set [3] was “insignificant”. For the same compound, the “effect on agonist-potentiated growth of NGF-induced neurite outgrowths” value in [4] (σ-1 agonist plus 2.5 μM of compound (group A)) is on record as “appreciably opposed the effect of the agonist compound”. In [5], the Ki is 6.2 nM. Besides, the “metabolization in S9 fraction of rat liver” value in data set [6] (absence of NADPH, FIG. 8(A)) is on record as “insignificant”; in [6] (presence of NADPH, FIG. 8(B)), “substantial metabolization”. In addition, the “metabolization in S9 fraction of human liver” value is given as “insignificant” in data set [7] (absence of NADPH, FIG. 8(A)) and “substantial metabolization” in data set [7] (presence of NADPH, FIG. 8(B)). Besides, the “metabolization in human plasma” value in [8] is given as “insignificant”. Further, in data set [9], the “reduction of inflammatory pain (time spent licking or biting the paw)” value is “effective in reducing inflammatory pain”. Also, the “in vitro metabolic stability” value in data set [10] was “high”. In addition, the “metabolization in mouse blood” value in data set [11] is “insignificant”.
Take `Cl.O=C(OCCN1CCOCC1)C1(c2ccccc2)CCCCC1` [PRE, 2-(4-morpholinoethyl)-1-phenylcyclohexanecarboxylate hydrochloride, reference compound]: the “percentage of cells with growth of neurite outgrowths” value in data set [4] (reference group (PRE) relative to control group (NGF)) is on record as “increased significantly”.

Broadly, the Ki is the equilibrium dissociation constant of an inhibitor or competing ligand from its target. Read a low Ki as tighter binding.
